Legend:
Format in all cases: ADME, organism-based
[1] = Volume distribution upon i.v. administration at the dose of 2 mg/kg in rat; design: dose 2 mg/kg, route intravenous; conditions: in vivo, iv
[2] = Half life upon i.v. administration at the dose of 2 mg/kg in rat; design: dose 2 mg/kg, route intravenous; conditions: in vivo, iv
[3] = Clearance upon i.v. administration at the dose of 2 mg/kg in rat; design: dose 2 mg/kg, route intravenous; conditions: in vivo, iv
[4] = Bioavailability in rats when administered 10 mg/kg orally; conditions: rat, in vivo, po, read-out: Bioavailabiility
[5] = Peak plasma concentration in rats when administered 10 mg/kg orally; design: dose 10 mg/kg, route oral; conditions: rat, po

Vd ([1]; read-out: Vd) [L/kg] | half-life [2] [h] | clearance [3] [mL/min/kg] | bioavailability [4] [%] | Cmax [5] [nM] | Vd [1] [L/kg] | T1/2 [2] [h] | Cl [3] [mL/min/kg] | SMILES
3.98 | 1.1 | 64 | 10 | 20 | – | – | – | O=S(=O)(c1ccc(Br)cc1)N1CC=C(C#Cc2ccccn2)CC1
– | – | – | – | – | 14.7 | 1.5 | 29 | Cc1ccc(S(=O)(=O)N2CC=C(C#Cc3ccccn3)CC2)cc1
1.4 | 0.5 | 34 | – | – | – | – | – | C(#Cc1ccccn1)C1=CCC(Nc2cccnc2)CC1 (stereo not drawn)

Further lines, the compound ahead of its results:

SMILES | Vd ([1]; read-out: Vd) [L/kg] | half-life [2] [h] | clearance [3] [mL/min/kg] | bioavailability [4] [%] | Cmax [5] [nM] | Vd [1] [L/kg] | T1/2 [2] [h] | Cl [3] [mL/min/kg]
C(#Cc1ccccn1)C1=CC(Oc2cccnc2)CCC1 (stereo not drawn) | 2.2 | 0.3 | 94 | – | – | – | – | –
C(#Cc1ccccn1)C1=CCCCC1 | 9.1 | 3.9 | 45 | – | – | – | – | –
Clc1cncc(OC2C=C(C#Cc3ccccn3)CCC2)c1 (stereo not drawn) | 7.2 | 4.8 | 32 | – | – | – | – | –
C(#Cc1ccccn1)C1=CC(Oc2ccncc2)CCC1 (stereo not drawn) | 1.2 | 0.8 | 41 | – | – | – | – | –

Reference: ChEMBL document CHEMBL1140392, “Cyclohexenyl- and dehydropiperidinyl-alkynyl pyridines as potent metabotropic glutamate subtype 5 (mGlu5) receptor antagonists” (Bioorg Med Chem Lett, 2005)
